These results are taken from US20110245164A1 (INDIANA UNIVERSITY RESEARCH AND TECHNOLOGY, published 2011).

Non-standard residues stand in square brackets, D forms with d. Residues, ends and D or L forms follow the SMILES beside them. Groups on a side chain read outwards from the residue. No end group written: not given here. Phe(4-NH2) = Nc1ccc(C[C@H](N)C(=O)O)cc1; Aze = O=C(O)[C@@H]1CCN1; Nleu = CC(C)CNCC(=O)O; Aib = CC(C)(N)C(=O)O

One series addresses Insulin Receptor (Homo sapiens, UniProt P06213). As to the kind of experiment: Insulin receptor binding assay (competition, scintillation proximity). The following applies: compared with native insulin.
A short description of series [1]: Rate of model dipeptide cleavage from model hexapeptide in PBS (HPLC). As to conditions: buffer.
Description: (§1) The solution was incubated at 37° C. […] The dipeptide cleavage was quenched by lowering the pH with an equal volume of 0.1% TFA. The rate of cleavage was qualitatively monitored by LC-MS and quantitatively studied by HPLC. The retention time and relative peak area for the prodrug and the parent model peptide were quantified using Peak Simple Chromatography software.
(§2) The flow rate was 1 ml/min. Solvent A contained 0.1% TFA in distilled water, and solvent B contained 0.1% TFA in 90% CH3CN. A linear gradient was employed (0% to 30% B in 10 minutes). The data were collected and analyzed using Peak Simple Chromatography software.
(§3) The rate of cleavage was determined for the respective propeptides. The concentrations of the propeptides and the model parent peptide were determined by their respective peak areas. The first order dissociation rate constants of the prodrugs were determined by plotting the logarithm of the concentration of the prodrug at various time intervals. The slope of this plot provides the rate constant ‘k’.
Another series can be described thus: physchem. As to conditions: buffer.
The nature of the next series: in vitro. In kind it is in vitro ADME. The following applies: plasma.
Series [2] can be described thus: Dipeptide half life on IGF1 dipeptide extended (p-NH2-F)A19 amide derivatives in PBS (HPLC). In kind it is physicochemical. As to conditions: buffer, pH 7.4. The protocol: IGF-1 peptides was measured to determine the impact of the peptide sequence or heteroduplex on the dipeptide cleavage.
Accordingly, the IGF1A chain alone was determined to be a good model for the study of pro-drug half life on IGF1 B:A (Y^B16L^B17) derivative peptides. […] For simplicity, prodrug half lives were determined using only the IGF1 A chain in the absence of the B chain. The half lives of each propeptide was determined as described in Example 5.
The IGF^B16B17 derivative peptide prodrugs were incubated in PBS, pH 7.4 at 37° C. and at predetermined time intervals an aliquot was taken and further degradation was quenched with 0.1% TFA and the aliquot was subjected to analytical HPLC analysis. Peaks a and b, representing the prodrug and active forms of the IGF^B16B17 derivative peptide were identified with LC-MS and quantified by integration of peak area an HPLC. FIGS. 9A-9C show the output of an HPLC analysis of the degradation of the IGF^B16B17 derivativepeptide prodrug: IGF1A(Ala)^6,7,11,20(Aib-Pro-pNH-F)^19. Aliquots were taken at 20 minutes (FIG. 9A), 81 minutes (FIG. 9B) and 120 minutes (FIG. 9C) after beginning the incubation of the prodrug in PBS.

Another series addresses human IGF-1 receptor (human, UniProt P08069 31-1367). Briefly: cell-based or functional assay.

Insulin Receptor, sequence (P06213 28-758 limits assumed): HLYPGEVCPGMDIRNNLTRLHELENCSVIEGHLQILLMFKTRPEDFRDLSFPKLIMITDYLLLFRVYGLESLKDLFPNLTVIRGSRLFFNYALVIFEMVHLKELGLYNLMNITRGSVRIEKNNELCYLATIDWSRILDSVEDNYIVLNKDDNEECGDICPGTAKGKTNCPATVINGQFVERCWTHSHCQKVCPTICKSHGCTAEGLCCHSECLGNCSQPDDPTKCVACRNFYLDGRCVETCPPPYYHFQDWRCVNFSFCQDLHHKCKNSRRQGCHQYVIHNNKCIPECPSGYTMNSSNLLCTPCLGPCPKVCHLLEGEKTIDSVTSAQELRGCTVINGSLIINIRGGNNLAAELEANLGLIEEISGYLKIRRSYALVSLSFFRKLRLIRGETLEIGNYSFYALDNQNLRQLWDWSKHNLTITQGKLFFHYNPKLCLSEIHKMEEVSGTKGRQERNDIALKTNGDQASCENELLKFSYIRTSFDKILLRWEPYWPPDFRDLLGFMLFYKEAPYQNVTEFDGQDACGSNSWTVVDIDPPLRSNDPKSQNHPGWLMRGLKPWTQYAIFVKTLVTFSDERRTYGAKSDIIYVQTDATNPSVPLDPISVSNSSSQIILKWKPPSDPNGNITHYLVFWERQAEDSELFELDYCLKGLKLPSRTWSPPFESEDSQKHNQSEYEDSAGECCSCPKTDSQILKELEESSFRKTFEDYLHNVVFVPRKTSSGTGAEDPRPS
Insulin Receptor, sequence (P06213 763-1382 partner limits assumed): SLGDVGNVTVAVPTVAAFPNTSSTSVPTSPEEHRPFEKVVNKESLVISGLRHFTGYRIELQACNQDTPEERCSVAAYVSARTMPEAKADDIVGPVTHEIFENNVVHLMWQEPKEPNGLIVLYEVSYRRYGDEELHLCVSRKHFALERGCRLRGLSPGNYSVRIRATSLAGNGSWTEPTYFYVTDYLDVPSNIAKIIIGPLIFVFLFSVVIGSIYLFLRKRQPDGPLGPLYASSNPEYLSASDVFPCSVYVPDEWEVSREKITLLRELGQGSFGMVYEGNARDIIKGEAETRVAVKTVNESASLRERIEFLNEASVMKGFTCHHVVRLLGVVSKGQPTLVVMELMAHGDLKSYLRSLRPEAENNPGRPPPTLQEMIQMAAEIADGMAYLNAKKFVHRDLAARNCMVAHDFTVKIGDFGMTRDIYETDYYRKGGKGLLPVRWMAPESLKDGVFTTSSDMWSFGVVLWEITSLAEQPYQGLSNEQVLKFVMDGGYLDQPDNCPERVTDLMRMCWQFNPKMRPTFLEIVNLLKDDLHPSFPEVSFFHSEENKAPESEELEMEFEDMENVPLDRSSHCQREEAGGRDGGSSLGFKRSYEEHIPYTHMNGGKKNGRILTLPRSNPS
Description for physchem: as §1, §2, §3

On to `CC[C@H](C)[C@H](NC(=O)CNC(=O)[C@@H]1CCCN1C(=O)[C@H](C)N)C(=O)N[C@H](C(=O)N[C@@H](CC(=O)O)C(=O)N[C@@H](CCC(=O)O)C(=O)N[C@H]1CSSC[C@@H]2NC(=O)[C@H](CO)NC(=O)[C@H](CCCNC(=N)N)NC(=O)[C@H](Cc3ccccc3)NC(=O)[C@H](CSSC[C@H](NC(=O)[C@H](CC(C)C)NC(=O)[C@@H](NC(=O)[C@H](CCC(=O)O)NC(=O)[C@@H]3CCCN3C(=O)CN)[C@@H](C)O)C(=O)NCC(=O)N[C@@H](C)C(=O)N[C@@H](CCC(=O)O)C(=O)N[C@@H](CC(C)C)C(=O)N[C@@H](C(C)C)C(=O)N[C@@H](CC(=O)O)C(=O)N[C@@H](C)C(=O)N[C@@H](CC(C)C)C(=O)N[C@@H](Cc3ccc(O)cc3)C(=O)N[C@@H](CC(C)C)C(=O)N[C@@H](C(C)C)C(=O)N[C@H](C(=O)NCC(=O)N[C@@H](CC(=O)O)C(=O)N[C@@H](CCCNC(=N)N)C(=O)NCC(=O)N[C@@H](Cc3ccccc3)C(=O)N[C@@H](Cc3ccc(O)cc3)C(=O)N[C@@H](Cc3ccccc3)C(=O)N[C@@H](CC(N)=O)C(=O)N[C@@H](CCCCN)C(=O)N3CCC[C@H]3C(=O)N[C@H](C(N)=O)[C@@H](C)O)CSSC[C@@H](C(=O)N[C@@H](C)C(N)=O)NC(=O)[C@H](Cc3ccc(O)cc3)NC(=O)[C@H](CCSC)NC(=O)[C@H](CCC(=O)O)NC(=O)[C@H](CC(C)C)NC(=O)[C@H](CCCNC(=N)N)NC(=O)[C@H](CCCNC(=N)N)NC(=O)[C@H](CC(C)C)NC(=O)[C@H](CC(=O)O)NC2=O)NC1=O)C(C)C` [IGF1(Y^B16L^B17)(AlaPro)^A-1,0], for which the “insulin receptor binding, in words” value at Insulin Receptor is “substantially reduced affinity for the insulin receptor”. In turn, `C[C@@H](O)[C@H](NC(=O)CNC(=O)[C@H](CCCNC(=N)N)NC(=O)[C@H](CO)NC(=O)[C@H](Cc1c[nH]cn1)NC(=O)[C@H](Cc1ccccc1)N(C)C(=O)[C@H](N)CCCCN)C(=O)N[C@@H](Cc1ccccc1)C(N)=O` [Compound 32] showed a half-life at 1 mg/ml in series [1] of 3420 min. As for `C[C@@H](O)[C@H](NC(=O)CNC(=O)[C@H](CCCNC(=N)N)NC(=O)[C@H](CO)NC(=O)[C@H](Cc1c[nH]cn1)NC(=O)[C@@H]1CCN1C(=O)C(C)(C)N)C(=O)N[C@@H](Cc1ccccc1)C(N)=O` [Compound 26] (H-[Aib][Aze]HSRGTF-NH2), the half-life at 1 mg/ml in the series “physchem” is > 20.8 days.

With `CC[C@H](C)[C@H](NC(=O)CN)C(=O)N[C@H](C(=O)N[C@@H](CC(=O)O)C(=O)N[C@@H](CCC(=O)O)C(=O)N[C@@H](C)C(=O)N[C@@H](C)C(=O)N[C@@H](Cc1ccccc1)C(=O)N[C@@H](CCCNC(=N)N)C(=O)N[C@@H](CO)C(=O)N[C@@H](C)C(=O)N[C@@H](CC(=O)O)C(=O)N[C@@H](CC(C)C)C(=O)N[C@@H](CCCNC(=N)N)C(=O)N[C@@H](CCCNC(=N)N)C(=O)N[C@@H](CC(C)C)C(=O)N[C@@H](CCC(=O)O)C(=O)N[C@@H](CCSC)C(=O)N[C@@H](Cc1ccc(NC(=O)CN(CC(C)C)C(=O)[C@H](N)CCCCN)cc1)C(=O)N[C@@H](C)C(=O)N[C@@H](C)C(N)=O)C(C)C` [dK N-isobutyl Gly] (H-GIVDEAAFRSADLRRLEM[Phe(4-NH2)]([Nleu-dK])AA-NH2), the half-life is 246 min in “in vitro” and 264 min in series [2]. `C[C@@H](O)[C@H](NC(=O)CNC(=O)[C@H](CCCNC(=N)N)NC(=O)[C@H](CO)NC(=O)[C@H](Cc1c[nH]cn1)NC(=O)[C@H](C)N(C)C(=O)[C@H](N)CCCCN)C(=O)N[C@@H](Cc1ccccc1)C(N)=O` [Compound 31] showed a half-life at 1 mg/ml in series [1] of 840 min.

B1: IGF-1 A (H8 A9 N21):B(H5D10Y16L17 A22) DPI A-COOH (ligand)
chain 1: GIVDECCHASCDLRRLEMYCN-OH
chain 2: GPEHLCGADLVDALYLVCGDAGFY
modifications: not fully specified (bridges); cysteine pairing not given here
On to B1, for which the “% IGF” value in the series with human IGF-1 receptor amounted to 7.7%.

Broadly, the half-life is how long it takes for the measured level to halve. Low readings indicate rapid decline, high ones slow decline.
